Measured values taken from patent US10383329B2, “Preservatives” (Eden Research PLC, priority 2012, dated 2019).

Assay: Citral solution / stable suspension limit
Type: physicochemical
Description: The choice of terpene may vary and mixtures of terpenes in an appropriate amount may be used. Thus, in one embodiment the terpene component includes one or more terpenes which contain oxygen. Citral, for example citral 95, is an oxygenated C10H16 terpene, C10H16O CAS No. 5392-40-5 (3,7-dimethyl-2,6-octadien-1-al). A stable suspension of citral can be formed up to about 2500 ppm. Citral can be made into a solution at up to about 500 ppm. A stable suspension of hollow glucan particles incorporating citral of 25 ppt citral can be made.

Structure (SMILES): CC(C)=CCCC(C)=CC=O [Citral, 3,7-dimethyl-2,6-octadien-1-al]
- Concentration up to which citral can be made into a solution (solution): up to 500 ppm
- Concentration up to which a stable suspension of citral can be formed (stable suspension): up to 2500 ppm
